Five compounds from ChEMBL document CHEMBL3132769, “Fragment growing to retain or alter the selectivity of anchored kinase hinge-binding fragments” (Medchemcomm, 2014) can be followed below.

Assay [1] concerns the target Serine/threonine-protein kinase PAK 2 (Homo sapiens) (UniProt Q13177). Kind of assay: Inhibition of human truncated PAK2 expressed in Escherichia coli cell assessed as substrate phosphorylation using fluorescence-labelled peptides as substrate at 8 uM after 90 mins by microfluidic peptide phosphorylation assay.
In assay [2] the target is T1, Mitogen-activated protein kinase 13 (Homo sapiens) (UniProt O15264).
T1 sequence (whole entry): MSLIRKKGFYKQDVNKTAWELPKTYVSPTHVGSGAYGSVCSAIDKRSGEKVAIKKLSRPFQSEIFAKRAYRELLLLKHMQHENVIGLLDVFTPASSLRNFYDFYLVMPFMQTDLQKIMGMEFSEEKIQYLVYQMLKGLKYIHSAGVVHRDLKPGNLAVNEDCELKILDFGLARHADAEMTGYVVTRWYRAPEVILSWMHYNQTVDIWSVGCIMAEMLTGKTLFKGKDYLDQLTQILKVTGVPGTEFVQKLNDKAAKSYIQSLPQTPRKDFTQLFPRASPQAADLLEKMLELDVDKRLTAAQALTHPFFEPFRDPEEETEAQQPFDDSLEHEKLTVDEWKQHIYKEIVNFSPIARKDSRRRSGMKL
Kind of assay: Inhibition of human full length p38 delta expressed in Escherichia coli cell assessed as substrate phosphorylation using fluorescence-labelled peptides as substrate at 0.2 uM after 90 mins by microfluidic peptide phosphorylation assay.

The target in assay [3] is T2, Serine/threonine-protein kinase DCLK2 (Homo sapiens) (UniProt Q8N568).
T2 sequence (whole entry): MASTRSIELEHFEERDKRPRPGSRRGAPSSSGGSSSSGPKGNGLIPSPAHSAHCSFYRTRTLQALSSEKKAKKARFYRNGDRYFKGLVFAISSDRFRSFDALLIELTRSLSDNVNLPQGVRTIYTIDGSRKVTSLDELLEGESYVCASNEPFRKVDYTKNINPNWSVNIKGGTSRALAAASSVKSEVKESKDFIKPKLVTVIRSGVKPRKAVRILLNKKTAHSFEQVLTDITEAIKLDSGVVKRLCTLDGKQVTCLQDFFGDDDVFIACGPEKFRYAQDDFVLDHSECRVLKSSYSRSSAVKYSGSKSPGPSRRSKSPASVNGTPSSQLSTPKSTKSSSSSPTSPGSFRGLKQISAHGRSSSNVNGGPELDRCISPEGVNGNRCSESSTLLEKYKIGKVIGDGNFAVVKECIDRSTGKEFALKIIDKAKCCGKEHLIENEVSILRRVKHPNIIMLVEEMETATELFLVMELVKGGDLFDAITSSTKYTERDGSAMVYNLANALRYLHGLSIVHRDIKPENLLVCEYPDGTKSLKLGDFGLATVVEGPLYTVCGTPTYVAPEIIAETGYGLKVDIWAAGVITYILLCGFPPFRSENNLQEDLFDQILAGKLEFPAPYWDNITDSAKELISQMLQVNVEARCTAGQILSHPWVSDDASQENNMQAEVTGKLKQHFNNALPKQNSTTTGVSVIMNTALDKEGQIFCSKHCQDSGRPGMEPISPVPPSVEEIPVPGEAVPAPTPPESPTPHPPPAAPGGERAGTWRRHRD
Put plainly: Inhibition of human full length DCAMKL2 expressed in baculovirus assessed as substrate phosphorylation using fluorescence-labelled peptides as substrate at 9 uM after 90 mins by microfluidic peptide phosphorylation assay.

Assay [4] addresses Glycogen synthase kinase-3 beta (Homo sapiens) (UniProt P49841). Kind of assay: Inhibition of human full length GSK-3 beta expressed in baculovirus assessed as substrate phosphorylation using fluorescence-labelled peptides as substrate at 2 uM after 90 mins by microfluidic peptide phosphorylation assay.
For assay [5], the target named is T3, Serine/threonine-protein kinase Nek2 (Homo sapiens) (UniProt P51955).
T3 sequence (whole entry): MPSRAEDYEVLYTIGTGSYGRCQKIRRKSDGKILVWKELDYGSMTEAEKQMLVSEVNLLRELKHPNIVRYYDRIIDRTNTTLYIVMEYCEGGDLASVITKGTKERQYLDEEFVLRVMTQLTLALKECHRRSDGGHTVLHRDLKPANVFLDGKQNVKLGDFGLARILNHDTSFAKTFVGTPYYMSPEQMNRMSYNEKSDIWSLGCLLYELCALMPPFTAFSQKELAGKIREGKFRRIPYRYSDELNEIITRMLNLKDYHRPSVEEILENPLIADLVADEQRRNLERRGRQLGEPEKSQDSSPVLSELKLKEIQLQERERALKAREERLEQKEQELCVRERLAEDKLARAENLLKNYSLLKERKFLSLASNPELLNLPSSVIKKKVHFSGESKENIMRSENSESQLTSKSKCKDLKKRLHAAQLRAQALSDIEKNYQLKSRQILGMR
Put plainly: Inhibition of human full length NEK2 expressed in baculovirus assessed as substrate phosphorylation using fluorescence-labelled peptides as substrate at 2 uM after 90 mins by microfluidic peptide phosphorylation assay.

Assay [6] concerns the target T4, Serine/threonine-protein kinase D1 (Homo sapiens) (UniProt Q15139).
T4 sequence (whole entry): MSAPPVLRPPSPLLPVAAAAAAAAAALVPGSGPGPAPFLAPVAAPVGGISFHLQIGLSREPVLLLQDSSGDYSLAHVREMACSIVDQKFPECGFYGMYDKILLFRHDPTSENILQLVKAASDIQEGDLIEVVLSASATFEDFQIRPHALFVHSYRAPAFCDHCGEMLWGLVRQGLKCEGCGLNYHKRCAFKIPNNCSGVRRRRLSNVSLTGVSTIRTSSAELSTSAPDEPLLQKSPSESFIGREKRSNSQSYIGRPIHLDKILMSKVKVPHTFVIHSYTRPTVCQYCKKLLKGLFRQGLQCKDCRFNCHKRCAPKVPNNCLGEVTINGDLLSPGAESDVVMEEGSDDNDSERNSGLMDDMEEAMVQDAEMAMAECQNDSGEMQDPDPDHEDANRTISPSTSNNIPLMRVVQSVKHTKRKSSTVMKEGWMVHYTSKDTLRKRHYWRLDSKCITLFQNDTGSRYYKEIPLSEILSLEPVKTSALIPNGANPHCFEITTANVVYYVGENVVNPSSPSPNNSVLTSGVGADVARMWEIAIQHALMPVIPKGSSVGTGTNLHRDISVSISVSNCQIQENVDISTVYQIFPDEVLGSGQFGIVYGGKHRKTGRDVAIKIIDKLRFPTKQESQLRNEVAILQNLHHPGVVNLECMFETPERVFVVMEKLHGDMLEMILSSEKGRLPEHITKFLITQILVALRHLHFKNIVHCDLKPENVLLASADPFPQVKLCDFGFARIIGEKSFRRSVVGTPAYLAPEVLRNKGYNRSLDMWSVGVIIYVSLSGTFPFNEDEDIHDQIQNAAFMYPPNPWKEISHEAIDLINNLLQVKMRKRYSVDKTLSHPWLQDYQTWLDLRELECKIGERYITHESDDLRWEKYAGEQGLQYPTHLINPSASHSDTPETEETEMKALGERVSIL
Put plainly: Inhibition of human full length PKD1 expressed in baculovirus assessed as substrate phosphorylation using fluorescence-labelled peptides as substrate at 95 uM after 90 mins by microfluidic peptide phosphorylation assay.

SMILES strings stand for the structures.

Sequence of Serine/threonine-protein kinase PAK 2 (Homo sapiens) (Q13177 whole entry, the tested form may be a part): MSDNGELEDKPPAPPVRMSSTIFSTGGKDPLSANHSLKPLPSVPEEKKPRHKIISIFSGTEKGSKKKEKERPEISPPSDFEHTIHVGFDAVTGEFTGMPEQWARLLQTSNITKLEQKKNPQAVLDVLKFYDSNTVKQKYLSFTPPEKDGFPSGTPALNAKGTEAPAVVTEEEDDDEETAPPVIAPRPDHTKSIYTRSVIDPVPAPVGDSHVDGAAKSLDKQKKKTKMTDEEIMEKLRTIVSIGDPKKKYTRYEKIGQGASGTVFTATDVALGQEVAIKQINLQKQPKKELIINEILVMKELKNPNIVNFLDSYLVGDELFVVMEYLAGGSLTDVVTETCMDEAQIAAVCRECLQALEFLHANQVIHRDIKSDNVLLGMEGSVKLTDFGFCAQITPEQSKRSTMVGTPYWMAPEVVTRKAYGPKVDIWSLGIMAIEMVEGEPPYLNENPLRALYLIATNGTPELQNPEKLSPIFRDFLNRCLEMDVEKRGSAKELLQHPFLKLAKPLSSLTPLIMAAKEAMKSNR
Sequence of Glycogen synthase kinase-3 beta (Homo sapiens) (P49841 whole entry, looked up): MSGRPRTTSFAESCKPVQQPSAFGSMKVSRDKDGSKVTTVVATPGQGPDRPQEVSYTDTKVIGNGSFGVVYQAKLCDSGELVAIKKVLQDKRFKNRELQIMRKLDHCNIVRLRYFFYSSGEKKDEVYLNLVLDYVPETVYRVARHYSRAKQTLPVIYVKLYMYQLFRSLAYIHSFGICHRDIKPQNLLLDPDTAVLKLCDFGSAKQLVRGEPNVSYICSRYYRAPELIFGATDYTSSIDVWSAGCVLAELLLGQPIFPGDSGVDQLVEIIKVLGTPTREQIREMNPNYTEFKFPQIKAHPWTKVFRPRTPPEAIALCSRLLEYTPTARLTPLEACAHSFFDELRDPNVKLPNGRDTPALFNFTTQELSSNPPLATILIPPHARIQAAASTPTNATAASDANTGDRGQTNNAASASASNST

As to `NCC1CCN(c2ncnc3[nH]ccc23)CC1`, the inhibition (in general, the share of the control response that was lost under treatment) in assay [1] is 24.5%.

For the compound `Clc1ccc(C2(c3ccc(-c4ncnc5[nH]cnc45)cc3)CCNCC2)cc1`, the inhibition in assay [2] was determined as 11%.

For the compound `NCC1CN(c2ncnc3[nH]c4cnccc4c23)CCO1` (stereo unspecified), the inhibition in assay [3] stood at 3%.

Consider `NC1CCN(c2ncnc3[nH]ccc23)CC1`, for which the inhibition was 5% in assay [4] and 0% in assay [5].

Regarding `NCCc1ccc(-c2ncnc3[nH]cnc23)cc1`, the inhibition in assay [6] was 44%.
